Patent US11261210B2, “Glycosylated antitumor ether lipids as novel cancer stem cell cytotoxic agents” (UNIVERSITY OF MANITOBA, priority 2012, dated 2022)

Experiments:
cancer stem cells = experiment: Tumorsphere formation by freshly sorted cancer stem cells; type: cell-based, human; details: added to freshly sorted cancer stem cells, 10 μM and above, 6 days
Source text: Breast cancer stem cell enriched cell population was obtained by staining breast cancer cell lines BT-474 and JIMT-1 for aldehyde dehydrogenase 1 (ALDH1) using the assay kit from Stem Cell Technologies (Vancouver BC, Canada) according to the instructions of the manufacturer with the appropriate controls. BT-474 is a ductal carcinoma cell line (Lasfargues E Y, Coutinho W G, Dion A S (1979) A human breast tumor cell line (BT-474) that supports mouse mammary tumor virus replication. In Vitro 15, 723-729) while JIMT-1 is a carcinoma cell line that is resistant to herceptin (Tanner M, Kapanen A J, Junttila T, Raheem O, Grenman S, Elo J, Elenius K, Isola J (2004). Characterization of a novel cell line established from a patient with herceptin-resistant breast cancer. Mol Cancer Ther 3, 1585-1592). Following the staining, the cells stained for ALDH1 were sorted from the bulk population by flow cytometry on a 4 laser MoFloXPP high speed/pressure cell sorter. The cells were pelleted by centrifugation, resuspended in supplemented Mammocult medium (Stem Cell Technologies) and dispersed into ultra-low adhesive 6-well plates or 35 mm dishes for 7 days to allow the formation of spheroids (mammospheres). After 7 days, the spheres were separated from single cells (dead non-stem cells) by sieving the contents of the well through a […] nylon cell strainer (BD Falcon). The spheres retained in the sieve are washed with Hanks buffer and subsequently trypsinised to obtain a single cell suspension of cancer stem cells. The cell numbers were determined with a Coulter ZM counter and the cells were seeded into the appropriate low adhesion tissue culture ware for various studies.
AEL solutions in ethanol were diluted into supplemented mammocult medium generally at twice the desired final concentration. A volume equal to that in the wells was added to dilute the drug to the desired concentration in each well. Subsequently any further addition of drug to the wells, utilized AEL solution prepared at the desired concentration. […]

[1] = tested on: BT-474 stem cell spheroids; experiment: Morphology of BT-474 stem cell spheroids under static conditions; type: cell-based, human; details: after 72 h treatment, FIG. 5A
Description: FIG. 5. A. Effect of β-O-Gln, C-Gln or ET-18-OCH3 on morphology of JIMT1 stem cell spheroids. B. Effect of β-O-Gln, α-O-Gln or ET-18-OCH3 on morphology of BT-474 stem cell spheroids. BT-474 cancer stem cells were grown for 7 days in ultra low adhesion 6 well plates. The tumorspheres formed were harvested, trypsinised and cell numbers were determined. Equal numbers of cells were dispersed into 48-well plates in mammocult medium and incubation was under static conditions. After spheres were formed, they were incubated with β-O-Gln, α-O-Gln or β-C-Gln (0, 10, or 30 μM) for 6 days. The medium was replenished after 3 days. Images in FIG. 5A were taken at day 0 and 72 h following addition of the compounds. Images in FIG. 5B were taken after 6 days of incubation with the compounds.
The effects of the GAELs, β-O-Gln, α-O-Gln or C-Gln on the growth and viability of tumorspheres growing under static conditions was also investigated. Studies were also conducted with ET-18-OCH3 as a representative of the ALP subclass and an apoptosis inducing compound. Under static conditions a large number of spheroids are formed in control incubations with the vehicle (0.1% EtOH). […] Complete disintegration is observed after incubation with GAELs for 6 days (FIG. 5B). […] Thus, while some disintegration had occurred it was not as comprehensive as those observed with the GAELs.

[2] = tested on: BT-474 stem cell tumorspheres; experiment: Viability of BT-474 stem cell tumorspheres (MTS assay); type: cell-based, human; details: 6 days
Description: FIG. 6. Effect of β-O-Gln, α-O-Gln, β-C-Gln and ET-18-OCH3 on the viability of BT-474 stem cell tumorspheres. BT-474 cancer stem cells were grown for 7 days in ultra low adhesion 6 well plates. The tumorspheres formed were harvested, trypsinised and cell numbers were determined. Equal numbers of cells were dispersed into 48-well plates in mammocult medium and incubation was under static conditions. Wells with only medium but no cells were treated in an identical manner to serve as blanks. After spheres were formed, β-O-Gln, α-O-Gln, β-C-Gln or ET-18-OCH3 (0, 10, 20, 30 μM) were added and incubation was for a total of 6 days. At the end of the incubation, the MTS reagent was added to each well and the plates were rotated on a Nutator mixer in a 5% CO2 incubator for 4 h. The absorbance of each well was read at 470 nm. The results are the means±standard deviation of 4 independent determinations.
(§1) Cell viability assay: Cell viability was determined by the Cell Titre 96 Aqueous One solution proliferation assay ((MTS assay; Promega) according to the instructions of the manufacturer.
The viability of the material at the end of the incubation was determined using the MTS assay. […] In cells incubated with 10 μM of β-C-Gln, 90% of the cells were not viable. […] In contrast, in experiments with ET-18-OCH3, 10 or 20 μM ET-18-OCH3 had little effect on the viability of BT-474 spheroids and at a concentration of 30 μM viability was around 45% relative to controls. The results of the integrity studies correlate well with the viability studies.
We also investigated the effect of α-O-Galn, β-O-Galn or α-O-Mann on the viability of BT-474 spheroids. The spheroids were incubated with the compounds for 6 days and the viability was assessed by the MTS assay. […] Viability was down to around 10% at 10 μM concentration of the compound. […] At a concentration of 30 μM a significant proportion (26-32%) of the BT-474 cancer stem cells were still viable. The cytotoxic efficacy of GAELs is dependent on the type of sugar moiety and the anomeric form in some instances.

[3] = tested on: JIMT1 stem cell tumorspheres; experiment: Viability of JIMT1 stem cell tumorspheres (MTS assay); type: cell-based, human; details: 6 days
Description: FIG. 8. Effect of β-O-Gln, α-O-Gln, β-C-Gln and ET-18-OCH3 on the viability of JIMT1 stem cell tumorspheres. BT-474 cancer stem cells were grown for 7 days in ultra low adhesion 6-well plates. The tumorspheres formed were harvested, trypsinised and cell numbers were determined. Equal numbers of cells were dispersed into 48-well non-treated plates in mammocult medium and incubation was under static conditions. Wells with only medium but no cells were treated in an identical manner to serve as blanks. After spheres were formed, O-Gln, C-Gln or ET-18-OCH3 (0, 10, 20, 30 μM) were added and incubation was for a total of 6 days. At the end of the incubation, the MTS reagent was added to each well and the plates were mixed in a nutator in a 5% CO2 incubator for 4 h. The absorbance of each well was read at 470 nm. The results are the means±standard deviation of 4 independent determinations.
as §1
The viability of cells in spheroids incubated with 20 or 30 μM ET-18-OCH3 was between 30-40% of controls.

[4] = cells with a functioning apoptotic pathway; cited from earlier work

CCCCCCCCCCCCCCCCOC[C@H](CO[C@@H]1O[C@H](CO)[C@@H](O)[C@H](O)[C@H]1N)OC [β-O-Gln, 1-O-hexadecyl-2-O-methyl-3-O-(2′-amino-2′-deoxy-β-D-glucopyranosyl)-sn-glycerol]
spheroid formation (cancer stem cells): unable to form spheroids | spheroid integrity [1]: significant disintegration | loss of viability ([2]; 10 μM): about 60% | loss of viability ([2]; 20 or 30 μM): total loss of viability | loss of viability ([3]; 10 μM): 90% | loss of viability ([3]; 20 or 30 μM): Complete loss of viability | caspase 3 or 9 activation during cell death [4]: without activation of caspase 3 or 9
